According to ChEMBL document CHEMBL3751670, “Enkephalin analogues with N-phenyl-N-(piperidin-2-ylmethyl)propionamide derivatives: Synthesis and biological evaluations” (Bioorg Med Chem Lett, 2016):

System: Rattus norvegicus
Assay: Antinociceptive activity in non-injured Sprague-Dawley rat model assessed as paw withdrawal latency at 10 ug/5 uL administered intrathecal after 5 mins by radiant heat assay relative to vehicle-treated control
Format: functional

`CCC(=O)N(CC1CCCCN1[C@@H](Cc1ccccc1)C(=O)NCC(=O)N[C@H](C)C(=O)N[C@@H](Cc1c(C)cc(O)cc1C)C(=O)O)c1ccccc1` (stereo partly specified) showed an Activity of 63%.
